Measured values as given in article PMC6941404, “Pigmentosins from Gibellula sp. as antibiofilm agents and a new glycosylated asperfuran from Cordyceps javanica” (Beilstein Journal of Organic Chemistry, 2019).
≈ marks a conversion by molar mass, not a printed value.

Key:
B. subtilis = test system: B. subtilis; set-up: method as in PMID 22889083; details: reported by Grove and co-workers; cited from earlier work
Cytotoxicity assay (MTT) = type: cell-based; details: human; HeLa cell line KB3.1; MTT, five days; NA = No activity; a = Proliferation inhibition, no altered or dead cells
Experimental: To evaluate the biological effects of compounds 1–6, various assays were carried out. The antimicrobial activity of the isolated compounds against Bacillus subtilis DSM10, Escherichia coli DSM498, Candida tenuis MUCL29892, and Mucor plumbeus MUCL49355 was determined as described by Kuephadungphan and co-workers. The nematicidal activity against Caenorhabditis elegans was investigated using a microtiter plate assay according to Helaly and co-workers, while the cytotoxicity was tested against murine fibroblast (L929) and human HeLa (KB3.1) cell lines according to Chepkirui and co-workers.
Biological activity screening of compounds 1–6 […]
The isolated compounds were tested for cytotoxic activity using the MTT (3 -(4,5-dimethylthiayol -2-yl)-2,5-diphenyltetrayolium bromide) method in 96 -well microtiter plates following the procedure previously described by Chepkirui et al.7 against th e cervix carcino ma cell line KB3.1 and the established mouse fibroblast cell line L929. The assay was kindly conducted by Wera Collisi, Department of Microbial Drugs, Helmholtz Centre of Infection Research, Germany. The tested cell lines were cultured in EBM -2 (Lonza) sup plemented with 10% fetal bovine serum (Gibco) under 10% CO2 at 37 °C. A 60 µL of serial dilutions from an initial stock (1 mg/mL) of the test compounds in MeOH was added to 120 µL aliquots of a cell suspension (50,000 cells/mL) in 96-well microplates.
After incubation for five days, 20 µL of MTT in phosphate buffered saline (PBS) were added to give a final concentration of 0.5 mg/mL. The plates were further incubated for two hours. The precipitate […]
of formazan crystals was centrifuged and the supernatant was then discarded. Each well was washed with 100 µL of PBS and 100 µL of isopropanol containing 0.4% hydrochloric acid were subsequently added in order to get the residual dissolved. The plates were gently shaken for 20 min before the absorbance at 590 nm was measured using an ELISA microplate reader (Victor). The concentration, at which the growth of cells was inhibited to 50% of the control (IC50), was obtained from the dose - response curves. Methanol was used as negative control while epothilone A and B wer e used as positive controls for L929 and KB3.1 cell lines, respectively. […]
(§1) After incubation at 37 °C under shaking condition, the overnight cultures were adjusted to equal the turbidity of 0.5 McFarland standard using the assay medium. The assay was carried out in 96 -well tissue cultured -treated microplates (TPP®, Germany) for S. aureus and non-treated plates (Falcon®MicroTestTM, USA) for P. aeruginosa , in which 10 μ L of each compound (0.5 mg/m L) in six replicates were mixed together with 140 μ L of bacterial suspension. Methanol and CASO medium with and without 4% glucose were used as negative controls and tetracycline (100 μg/m L) as positive control. Plates were covered with a sterile adhesive porous paper (Kisker Biotech GmbH, Steinfurt, Germany) and incubated at 37 °C for 24 h.
After incubation, ba cterial biofilms were stained with 0.1% crystal violet solution (Sigma -Aldrich) following the protocol of O’Toole .9 Then, the biofilm was subsequently quantified using a microplate reader at 550 nm. […]
aeruginosa PA14 were further evaluated for their bacteriostatic and bactericidal activit ies. The assay was performed in the Bioscreen 100 -well Honeycomb plate according to the protocol described by Yuyama et al. 13 where the MIC values were determined. […]

[1] = test system: Pseudomonas aeruginosa PA14; experiment: Anti-biofilm activity, microtiter dish biofilm formation assay; type: cell-based; details: lowest concentration preventing biofilm formation by at least 50%, 24 h, NA = No activity
Experimental: (§2) The isolated compounds were also tested for their ability to interfere in the biofilm formation of Staphylococcus aureus DSM1104 and Pseudomonas aeruginosa PA14 [51]. The biofilm inhibition assay was performed in 96-well microtiter plates using the microtiter dish biofilm formation assay described by O’Toole, with minor modifications, as outlined in our recent publications. The antibiofilm activity is expressed as MIC values, which is defined as the lowest concentration of substance that prevents biofilm formation of a target microorganism by at least 50%. […]
(§3) Anti-biofilm activity assay
as §1, with “The determination of the ability of isolated compounds to prevent biofilm formation of S. aureus DSM1104 (ATCC25923) and P. aeruginosa PA148 was performed using the microtiter dish biofilm formation assay described by O’Toole9 with minor modification provided in our recent publications 1, 6, 10–14. The biofilm forming strains were enriched overnight in CASO medium with and without 4% glucose for S. aureus and P. aeruginosa , respectively. After” for “After”
(§4) After incubation, ba cterial biofilms were stained with 0.1% crystal violet solution (Sigma -Aldrich) following the protocol of O’Toole .9 Then, the biofilm was subsequently quantified using a microplate reader at 550 nm. 12 In the current study, the antibiofilm activity was expr essed as MIC value which was defined as the lowest concentration of substance that prevents the biofilm formation of a target microorganism by at least 50%. […]

[2] = test system: Staphylococcus aureus DSM1104; experiment: as above; type: cell-based; details: S. aureus DSM1104 (ATCC25923), lowest concentration preventing biofilm formation by at least 50%, 24 h, NA = No activity
Experimental: as §2, §3
as §1, with “The determination of the ability of isolated compounds to prevent biofilm formation of S. aureus DSM1104 (ATCC25923) and P. aeruginosa PA148 was performed using the microtiter dish biofilm formation assay described by O’Toole9 with minor modification provided in our recent publications 1, 6, 10–14. The biofilm forming strains were enriched overnight in CASO medium with and without 4% glucose for S. aureus and P. aeruginosa , respectively. After” for “After”
as §4

## COc1cc(O)c2c(O)c3c(cc2c1-c1c(OC)cc(O)c2c(O)c4c(cc12)CC(C)OC4=O)CC(C)OC3=O (stereo not drawn) [Pigmentosin A (1), pigmentosin A]
B. subtilis
  MIC against B. subtilis: 20 µg/mL (≈ 36.6 µM)
Cytotoxicity assay (MTT)
  IC50: 17 µg/mL (≈ 31.1 µM)
[1]
  Anti-biofilm activity (MIC) PA: nor antibiofilm activity
[2]
  Anti-biofilm activity (MIC) SA: 1.9 µg/mL
[2]; listed as 1
  Anti-biofilm activity (MIC) SA: active

## COc1cc(O)c2c(O)c3c(cc2c1-c1c(OC)cc(O)c2c(O)c4c(cc12)CC(CC(C)O)OC4=O)CC(C)OC3=O (stereo not drawn) [Pigmentosin B (2), pigmentosin B]
[1]
  Anti-biofilm activity (MIC) PA: nor antibiofilm activity
[2]
  Anti-biofilm activity (MIC) SA: 15.6 µg/mL
[2]; listed as 2
  Anti-biofilm activity (MIC) SA: active
[2]; listed as pigmentosin B (2)
  Anti-biofilm activity (MIC) SA: 15.6 µg/mL
